Data on 19 compounds can be found in patent US11673910B2, “Macrolides with modified desosamine sugars and uses thereof” (Zikani Therapeutics, Inc., priority 2017, dated 2023).

What all share (assay type): cell-based
Test [1] has as its system E. coli strain MP-4. In words: Broth dilution MIC determination (CLSI) against E. coli strain MP-4. The following applies: Escherichia coli, MP4. The method in brief: (§1)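 Macrolides were serially diluted in broth according to CLSI standards and the minimum inhibitory concentration was read per organism; each MIC was then assigned to one of three bands (+++ ≤4, ++ ≥8 to <32, + ≥32 mg/L).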
A general note: Dilution methods test growth across graded concentrations, often in twofold steps.

For test [2], the system named is K. pneumoniae strain MP-548. Kind of test: Broth dilution MIC determination (CLSI) against K. pneumoniae strain MP-548. The following applies: Klebsiella pneumoniae, MP548. The method in brief:
as §1

Test [3] concerns P. aeruginosa strain MP-3. Kind of test: Broth dilution MIC determination (CLSI) against P. aeruginosa strain MP-3. The following applies: Pseudomonas aeruginosa, MP3. The method in brief: as §1
In test [4] the test system is A. baumannii strain MP-15. Kind of test: Broth dilution MIC determination (CLSI) against A. baumannii strain MP-15. The following applies: Acinetobacter baumannii, MP15. An outline of the steps:
as §1

Test [5] concerns S. aureus strain MP-12. In words: Broth dilution MIC determination (CLSI) against S. aureus strain MP-12. The following applies: Staphylococcus aureus, MP12, strain MP-12. The method in brief:
as §1

Each structure is given as a SMILES string. Converted amounts (≈) assume the structure as drawn.

For orientation: MIC means the lowest concentration that inhibits growth of the organism.

Regarding `CC[C@@H]1CC(N(C)C)[C@@H](O)[C@H](O[C@@H]2[C@@H](C)C(=O)C(C)C(=O)O[C@H](CC)[C@@]3(C)OC(=O)N[C@@H]3[C@@H](C)NC[C@H](C)C[C@@]2(C)OC)O1` (some centres unmarked) [Compound 182, 3-Descladinosyl-3-oxo-6-O-methyl-N9a-desmethyl-11,12-dideoxy-12,11-(oxycarbonylimino)-5′-desmethyl-5′-ethyl Azithromycin], the MIC was at most 4 µg/mL in test [1]; 8 to 32 µg/mL (≈ 12.7 to 51 µM) in test [2]; at least 32 µg/mL in test [3]; 8 to 32 µg/mL (≈ 12.7 to 51 µM) in test [4]; 8 to 32 µg/mL (≈ 12.7 to 51 µM) in test [5].
In the case of `CC[C@H]1OC(=O)C(C)C(=O)[C@H](C)[C@@H](O[C@@H]2O[C@H](CCC(C)C)CC(N(C)C)[C@H]2O)[C@](C)(OC)C[C@@H](C)CN[C@H](C)[C@H]2NC(=O)O[C@@]21C` (some centres unmarked) [Compound 183, 3-Descladinosyl-3-oxo-6-O-methyl-N9a-desmethyl-11,12-dideoxy-12,11-(oxycarbonylimino)-6′-isobutyl Azithromycin], the MIC in test [1] was 8 to 32 µg/mL (≈ 11.9 to 47.8 µM); in test [2] it was at least 32 µg/mL; in test [3] it was at least 32 µg/mL; in test [4], 8 to 32 µg/mL (≈ 11.9 to 47.8 µM); in test [5], 8 to 32 µg/mL (≈ 11.9 to 47.8 µM).
In the case of `CC[C@H]1OC(=O)C(C)C(=O)[C@H](C)[C@@H](O[C@@H]2O[C@H](CC(C)C)CC(N(C)C)[C@H]2O)[C@](C)(OC)C[C@@H](C)CN[C@H](C)[C@H]2NC(=O)O[C@@]21C` (some centres unmarked) [Compound 184, 3-Desdadinosyl-3-oxo-6-O-methyl-N9a-desmethyl-11,12-dideoxy-12,11-(oxycarbonylimino)-6′-isopropyl Azithromycin], the minimal inhibitory concentration (MIC) in test [1] was at most 4 µg/mL; in test [2] it was 8 to 32 µg/mL (≈ 12.2 to 48.8 µM); in test [3] it was at least 32 µg/mL; in test [4] it was 8 to 32 µg/mL (≈ 12.2 to 48.8 µM); in test [5] it was at most 4 µg/mL.
With `CC[C@H]1OC(=O)C(C)C(=O)[C@H](C)[C@@H](O[C@@H]2O[C@H](CCC3CC3)CC(N(C)C)[C@H]2O)[C@](C)(OC)C[C@@H](C)CN[C@H](C)[C@H]2NC(=O)O[C@@]21C` (some centres unmarked) [Compound 185, 3-Descladinosyl-3-oxo-6-O-methyl-N9a-desmethyl-11,12-dideoxy-12,11-(oxycarbonylimino)-6′-cyclopropylmethyl Azithromycin], the MIC was 8 to 32 µg/mL (≈ 12 to 47.9 µM) in test [1]; at least 32 µg/mL in test [2]; at least 32 µg/mL in test [3]; 8 to 32 µg/mL (≈ 12 to 47.9 µM) in test [4]; 8 to 32 µg/mL (≈ 12 to 47.9 µM) in test [5].
On to `CC[C@H]1OC(=O)C(C)C(=O)[C@H](C)[C@@H](O[C@@H]2O[C@H](CCc3ccccc3)CC(N(C)C)[C@H]2O)[C@](C)(OC)C[C@@H](C)CN[C@H](C)[C@H]2NC(=O)O[C@@]21C` (some centres unmarked) [Compound 186, 3-Descladinosyl-3-oxo-6-O-methyl-N9a-desmethyl-11,12-dideoxy-12,11-(oxycarbonylimino)-6′-benzyl Azithromycin], for which the MIC is at most 4 µg/mL in test [1]; 8 to 32 µg/mL (≈ 11.4 to 45.5 µM) in test [2]; at least 32 µg/mL in test [3]; 8 to 32 µg/mL (≈ 11.4 to 45.5 µM) in test [4]; at most 4 µg/mL in test [5].
On to `CC[C@H]1OC(=O)C(C)C(=O)[C@H](C)[C@@H](OC2OC(CCNC3CC3)CC(N(C)C)C2O)[C@](C)(OC)C[C@@H](C)CN[C@H](C)[C@H]2NC(=O)O[C@@]21C` (some centres unmarked) [Compound 187, 3-Descladinosyl-3-oxo-6-O-methyl-N9a-desmethyl-11,12-dideoxy-12,11-(oxycarbonylimino)-5′-desmethyl-5′-(2-(aminocyclopropyl)ethyl) Azithromycin], for which the MIC is at most 4 µg/mL in test [1]; at most 4 µg/mL in test [2]; at least 32 µg/mL in test [3]; at least 32 µg/mL in test [4]; at least 32 µg/mL in test [5].
Regarding `CC[C@H]1OC(=O)C(C)C(=O)[C@H](C)[C@@H](OC2OC(C(O)CNC3CC3)CC(N(C)C)C2O)[C@](C)(OC)C[C@@H](C)CN[C@H](C)[C@H]2NC(=O)O[C@@]21C` (some centres unmarked) [Compound 188, 3-Descladinosyl-3-oxo-6-O-methyl-8-oxo-N9a-desmethyl-11,12-dideoxy-12,11-(oxycarbonylimino)-6′-hydroxy-6′-cyclopropylaminomethyl Azithromycin], the MIC in test [1], in test [2], in test [3], in test [4] and in test [5] was at least 32 µg/mL throughout.
`CC[C@H]1OC(=O)C(C)C(=O)[C@H](C)[C@@H](OC2OC(CNC3CC3)CC(N(C)C)C2O)[C@](C)(OC)C[C@@H](C)C(=O)N[C@H](C)[C@H]2NC(=O)O[C@@]21C` (some centres unmarked) [Compound 189, 3-Descladinosyl-3-oxo-6-O-methyl-8-oxo-N9a-desmethyl-11,12-dideoxy-12,11-(oxycarbonylimino)-6′-cyclopropylamino Azithromycin]: the MIC in test [1], in test [2], in test [3], in test [4] and in test [5] was at least 32 µg/mL each time.
As to `CC[C@H]1OC(=O)C(C)(C)C(=O)[C@H](C)[C@@H](O[C@@H]2O[C@H](CNC3CC3)CC(N(C)C)[C@H]2O)[C@](C)(OC)C[C@@H](C)CN(C)[C@H](C)[C@H]2NC(=O)O[C@@]21C` (some centres unmarked) [Compound 190, 2-Methyl-3-descladinosyl-3-oxo-6-O-methyl-N9a-desmethyl-11,12-dideoxy-12,11-(oxycarbonylimino)-6′-cylcopropylamino Azithromycin], the MIC in test [1], in test [2], in test [3], in test [4] and in test [5] was at least 32 µg/mL in each case.
Consider `CC[C@H]1OC(=O)C(C)C(=O)[C@H](C)[C@@H](O[C@@H]2O[C@H](CNC3CC3)CC(N(C)C)[C@H]2O)[C@](C)(OC)C[C@@H](C)CN(C)[C@H](C)[C@H]2N(C)C(=O)O[C@]12C` (some centres unmarked) [Compound 191], for which the MIC in test [1] was at most 4 µg/mL; in test [2], 8 to 32 µg/mL (≈ 11.5 to 45.9 µM); in test [3] it was at least 32 µg/mL; in test [4], at least 32 µg/mL; in test [5], at least 32 µg/mL.
For the compound `CC[C@H]1OC(=O)C(C)(C)C(=O)[C@H](C)[C@@H](O[C@@H]2O[C@H](CNC3CC3)CC(N(C)C)[C@H]2O)[C@](C)(OC)C[C@@H](C)CN[C@H](C)[C@H]2NC(=O)O[C@@]21C` (some centres unmarked) [Compound 192, 2-Methyl-3-descladinosyl-3-oxo-6-O-methy 1-N9a-desmethyl-11,12-dideoxy-12,11-(oxycarbonylimino)-6′-cylcopropylamino Azithromycin], the MIC in test [1] was at most 4 µg/mL; in test [2], at least 32 µg/mL; in test [3] it was at least 32 µg/mL; in test [4], at least 32 µg/mL; in test [5], at least 32 µg/mL.
For `CC[C@H]1OC(=O)C(C)C(=O)[C@H](C)[C@@H](O[C@@H]2O[C@H](C(=O)O)CC(N(C)C)[C@H]2O)[C@](C)(OC)C[C@@H](C)CN[C@H](C)[C@H]2NC(=O)O[C@@]21C` (some centres unmarked) [Compound 193], the MIC in test [1], in test [2], in test [3], in test [4] and in test [5] was at least 32 µg/mL in each case.
`CC[C@H]1OC(=O)[C@]2(C)CCO[C@](C)(C[C@@H](C)CN[C@H](C)[C@H]3NC(=O)O[C@@]31C)[C@H](O[C@@H]1O[C@H](CO)C[C@H](N(C)C)[C@H]1O)[C@@H](C)C2=O` [Compound 194]: the MIC in test [1], in test [2], in test [3], in test [4] and in test [5] was at least 32 µg/mL throughout.
Take `CC[C@H]1OC(=O)[C@@]2(C)CCO[C@](C)(C[C@@H](C)CN[C@H](C)[C@H]3NC(=O)O[C@@]31C)[C@H](O[C@@H]1O[C@H](CO)C[C@H](N(C)C)[C@H]1O)[C@@H](C)C2=O` [Compound 195]: the MIC in test [1], in test [2], in test [3], in test [4] and in test [5] was at least 32 µg/mL in each case.
For `CC[C@H]1OC(=O)[C@]2(C)CCO[C@](C)(C[C@@H](C)CN[C@H](C)[C@H]3NC(=O)O[C@@]31C)[C@H](O[C@@H]1O[C@H](CNCC3CC3)C[C@H](N(C)C)[C@H]1O)[C@@H](C)C2=O` [Compound 196], the MIC in test [1] is 8 to 32 µg/mL (≈ 11.5 to 46 µM); in test [2], at least 32 µg/mL; in test [3], at least 32 µg/mL; in test [4], at least 32 µg/mL; in test [5] it was at least 32 µg/mL.
Regarding `CC[C@H]1OC(=O)[C@@]2(C)CCO[C@](C)(C[C@@H](C)CN[C@H](C)[C@H]3NC(=O)O[C@@]31C)[C@H](O[C@@H]1O[C@H](CNCC3CC3)C[C@H](N(C)C)[C@H]1O)[C@@H](C)C2=O` [Compound 197], the MIC in test [1], in test [2], in test [3], in test [4] and in test [5] was at least 32 µg/mL each time.
As for `CC[C@H]1OC(=O)[C@]2(C)CCO[C@](C)(C[C@@H](C)CN[C@H](C)[C@H]3NC(=O)O[C@@]31C)[C@H](O[C@@H]1O[C@H](CN3CCCCC3)C[C@H](N(C)C)[C@H]1O)[C@@H](C)C2=O` [Compound 198], the MIC in test [1] was at most 4 µg/mL; in test [2], 8 to 32 µg/mL (≈ 11.3 to 45.1 µM); in test [3] it was at least 32 µg/mL; in test [4], at least 32 µg/mL; in test [5], 8 to 32 µg/mL (≈ 11.3 to 45.1 µM).
In the case of `CC[C@H]1OC(=O)[C@@]2(C)CCO[C@](C)(C[C@@H](C)CN[C@H](C)[C@H]3NC(=O)O[C@@]31C)[C@H](O[C@@H]1O[C@H](CN3CCCCC3)C[C@H](N(C)C)[C@H]1O)[C@@H](C)C2=O` [Compound 199], the MIC in test [1], in test [2], in test [3], in test [4] and in test [5] was at least 32 µg/mL each time.
Turning to `CC[C@H]1OC(=O)[C@]2(C)CCO[C@](C)(C[C@@H](C)CN[C@H](C)[C@H]3NC(=O)O[C@@]31C)[C@H](O[C@@H]1O[C@H](CNCc3cccnc3)C[C@H](N(C)C)[C@H]1O)[C@@H](C)C2=O` [Compound 200], the MIC is 8 to 32 µg/mL (≈ 10.9 to 43.7 µM) in test [1]; at least 32 µg/mL in test [2]; at least 32 µg/mL in test [3]; at least 32 µg/mL in test [4]; 8 to 32 µg/mL (≈ 10.9 to 43.7 µM) in test [5].
